# Source: patent publication US8263622B2, “Fused-ring derivative and medical application of same” (Kissei Pharmaceutical Co., Ltd., priority 2008, dated 2012)
# What was measured:
# [1] = target: T1, Xanthine oxidase (from bovine milk, Sigma) (Bos taurus, UniProt P80457); assay: Xanthine oxidase inhibitory activity; assay type: biochemical; conditions: xanthine substrate, absorbance at 290 nm, 10 minutes at room temperature
# T1 construct: Xanthine oxidase (from bovine milk, Sigma); purchased Sigma; host or cells: bovine milk
# Procedure: (1) Preparation of Test Compounds
# Test compounds were dissolved in DMSO (Wako) at 40 mM concentration and then diluted to intended concentrations with phosphate-buffered saline (PBS).
# (2) Method for Measurement
# Xanthine oxidase (from bovine milk, Sigma) was prepared with phosphate-buffered saline (PBS) at 0.02 units/mL, and then the solution was added to 96 well plates at 50 μL/well. In addition, test compounds diluted with PBS were added at 50 μL/well. Xanthine (Wako) at 200 μM prepared with PBS was added at 100 μL/well, and the reaction was measured for 10 minutes at room temperature. Absorbance at 290 nm was measured using a microplate reader SpectraMax Plus 384 (Molecular device). The absorbance under a condition without xanthine is 0%, and control without test compounds is 100%. Fifty % inhibitory concentration (IC50) of test compounds was calculated (Table 11). Ex. No. in the table indicates example number.
# [2] = target: T2, human URAT1 (Homo sapiens, UniProt Q96S37); assay: Inhibitory activity of uric acid transport with human URAT1 expressing cells; assay type: cell-based; conditions: COS-7; concentration of 100 μM; 14C-uric acid uptake (20 μM) in COS7 cells transiently expressing human URAT1, 5 minutes, 37° C.; read-out: Percent inhibition
# T2 construct: expressed in transfected cells; host or cells: COS7 cells (RIKEN CELL BANK RCB0539), transient, pcDNA3.1
# T2 sequence (Q96S37 1-553): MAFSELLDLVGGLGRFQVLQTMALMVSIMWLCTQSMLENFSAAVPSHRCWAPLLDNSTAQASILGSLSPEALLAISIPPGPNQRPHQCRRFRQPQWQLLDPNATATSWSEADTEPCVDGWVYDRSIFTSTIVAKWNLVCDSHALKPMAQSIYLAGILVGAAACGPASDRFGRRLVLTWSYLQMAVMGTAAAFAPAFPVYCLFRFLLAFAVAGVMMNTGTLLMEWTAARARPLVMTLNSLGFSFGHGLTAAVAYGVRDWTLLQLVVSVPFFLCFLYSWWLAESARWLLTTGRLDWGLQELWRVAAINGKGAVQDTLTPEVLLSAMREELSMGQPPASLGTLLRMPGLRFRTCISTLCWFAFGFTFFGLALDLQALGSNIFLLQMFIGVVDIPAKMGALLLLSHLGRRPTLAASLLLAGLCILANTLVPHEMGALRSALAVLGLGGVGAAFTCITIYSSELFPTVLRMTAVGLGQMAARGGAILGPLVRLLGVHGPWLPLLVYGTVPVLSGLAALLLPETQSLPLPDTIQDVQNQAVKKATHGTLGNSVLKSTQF
# Procedure: (1) Preparation of Transiently Human URAT1 Expressing Cells
# Full length human URAT1 cDNA (NCBI Accession No. NM_144585) was subcloned into expression vector, pcDNA3.1 (Invitrogen). Human URAT1 expression vector was transfected into COS7 cells (RIKEN CELL BANK RCB0539) using Lipofectamine 2000 (Invitrogen). COS7 cells were seeded in collagen-coated 24 well plates (Japan Becton Dickinson) at 90-95% confluency and cultured in D-MEM culture medium (Invitrogen) containing 10% fetal bovine serum (Sanko Junyaku) for 2 hours at 37° C. under the condition of 5% CO2. For 1 well, 2 μL of Lipofectamine 2000 was diluted in 50 μL of OPTI-MEM (Invitrogen) and allowed to stand at room temperature for 7 minutes (hereinafter referred to as Lipo2000-OPTI). For 1 well, 0.8 μg of human URAT1 expression vector was diluted in 50 μL of OPTI-MEM (Invitrogen) and combined gently with Lipo2000-OPTI. After standing at room temperature for 25 minutes, the mixture was added to COS7 cells at 100 μL/well. Furthermore, COS7 cells were cultured for 2 days at 37° C. under the condition of 5% CO2 and used for measuring inhibitory activity on the uptake.
# (2) Preparation of Test Compounds
# Test compounds were dissolved in DMSO (Wako) at 10 mM concentration and then diluted to 2 times higher concentration than intended with pre-treatment buffer (125 mM sodium gluconate, 4.8 mM potassium gluconate, 1.2 mM potassium dihydrogen phosphate, 1.2 mM magnesium sulfate, 1.3 mM calcium gluconate, 5.6 mM glucose, 25 mM Hepes, pH 7.4). Pre-treatment buffer without test compounds was used for control. In addition, an equal volume of pre-treatment buffer containing ^14C-labeled uric acid (American Radiolabeled Chemicals, Inc.) was added to test compounds and control, and finally assay buffer including 20 μM uric acid was prepared.
# (3) Method for Measurement
# All tests were performed on hot-plate at 37° C. Pre-treatment buffer and assay buffer were incubated at 37° C. and then used for assays. Medium was removed from plates, and 700 μL of pre-treatment buffer was added, and the cells were pre-incubated for 10 minutes. After repeating same step, pre-treatment buffer was removed, and assay buffer was added at 400 μL/well. The uptake reaction was carried out for 5 minutes. After terminating the reaction, assay buffer was rapidly removed, and the cells were washed twice with addition of ice-cold pre-treatment buffer at 1.2 mL/well. Then, the cells were lysed by addition of 0.2N sodium hydroxide at 300 μL/well. The lysed solutions were transferred into Picoplate (PerkinElmer), and Microscinti 40 (PerkinElmer) was added at 600 μL/well. After mixing, the radioactivity was counted in a liquid scintillation counter (PerkinElmer). The radioactivity in COS7 cells not transfected with URAT1 expression vector was also counted under the same condition as control. […] As a result, it was shown that all Examples 2, 6, 7, 12, 13, 15, 22 and 31 have over 80% inhibition in a concentration of 100 μM. Percent inhibition (%)=[1−(B−C)/(A−C)]×100 A: Radioactivity in control B: Radioactivity in the case of addition of test compounds C: Radioactivity in COST cells not transfected with URAT1 expression vector
# T1 sequence (P80457 whole entry): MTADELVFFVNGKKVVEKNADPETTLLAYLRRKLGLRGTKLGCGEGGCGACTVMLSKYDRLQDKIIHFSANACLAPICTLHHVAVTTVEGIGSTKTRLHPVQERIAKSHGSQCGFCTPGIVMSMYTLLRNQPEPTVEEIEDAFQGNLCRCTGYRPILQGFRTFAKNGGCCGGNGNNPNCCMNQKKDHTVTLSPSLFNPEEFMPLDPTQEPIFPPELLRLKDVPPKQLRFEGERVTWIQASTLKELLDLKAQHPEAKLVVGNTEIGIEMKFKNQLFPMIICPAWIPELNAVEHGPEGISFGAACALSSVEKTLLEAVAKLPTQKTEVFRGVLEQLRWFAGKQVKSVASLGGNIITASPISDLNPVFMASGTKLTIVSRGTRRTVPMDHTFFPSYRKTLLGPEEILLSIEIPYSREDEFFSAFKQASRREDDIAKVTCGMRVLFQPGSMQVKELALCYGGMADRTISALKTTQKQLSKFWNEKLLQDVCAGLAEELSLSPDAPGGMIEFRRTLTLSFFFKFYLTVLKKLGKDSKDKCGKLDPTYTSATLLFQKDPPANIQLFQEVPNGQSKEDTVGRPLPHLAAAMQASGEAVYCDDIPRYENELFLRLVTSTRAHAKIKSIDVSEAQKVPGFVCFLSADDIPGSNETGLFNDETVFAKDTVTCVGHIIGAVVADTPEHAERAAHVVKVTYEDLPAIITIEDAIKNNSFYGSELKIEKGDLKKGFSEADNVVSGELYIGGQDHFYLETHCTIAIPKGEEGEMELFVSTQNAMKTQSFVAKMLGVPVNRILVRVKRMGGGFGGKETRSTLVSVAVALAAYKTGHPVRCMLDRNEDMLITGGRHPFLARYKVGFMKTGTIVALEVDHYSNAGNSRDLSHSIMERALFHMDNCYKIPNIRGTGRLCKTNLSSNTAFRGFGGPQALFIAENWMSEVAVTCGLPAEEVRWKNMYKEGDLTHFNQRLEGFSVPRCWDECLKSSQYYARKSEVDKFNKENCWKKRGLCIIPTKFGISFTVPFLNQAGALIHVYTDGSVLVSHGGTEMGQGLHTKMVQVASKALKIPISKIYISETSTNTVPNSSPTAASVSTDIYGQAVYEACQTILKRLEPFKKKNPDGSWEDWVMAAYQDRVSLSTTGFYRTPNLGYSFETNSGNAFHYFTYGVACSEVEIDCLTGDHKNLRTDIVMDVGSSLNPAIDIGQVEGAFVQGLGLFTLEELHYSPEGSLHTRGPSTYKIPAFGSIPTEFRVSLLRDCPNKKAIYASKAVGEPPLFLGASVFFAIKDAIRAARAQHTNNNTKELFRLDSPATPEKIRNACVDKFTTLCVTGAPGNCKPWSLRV
structure (smiles),measurement,setting,value
"N#Cc1cc(-c2ccc(C(=O)O)c(O)c2)nc2ccccc12 [Example 6, 4-(4-Cyanoquinoline-2-yl)-2-hydroxy-benzoic acid]",IC50,[1],8 nM
same,inhibition at 100 µM,[2],> 80%
"N#Cc1cc(-c2cc(C(=O)O)c(O)cn2)cc2ccccc12 [Example 2, 2-(4-Cyanonaphthalene-2-yl)-5-hydroxyisonicotinic acid]",IC50,[1],13 nM
same,inhibition at 100 µM,[2],> 80%
"Cc1nc(-c2cc(C#N)c3ccccc3c2)sc1C(=O)O [Example 7, 2-(4-Cyanonaphthalene-2-yl)-4-methylthiazole-5-carboxylic acid]",IC50,[1],7 nM
same,inhibition at 100 µM,[2],> 80%
Cc1ccc2c(C#N)cc(-c3nc(C)c(C(=O)O)s3)cc2c1 [Example 9],IC50,[1],26 nM
Cc1nc(-c2cc(C#N)c3c(F)cccc3c2)sc1C(=O)O [Example 22],IC50,[1],7 nM
same,inhibition at 100 µM,[2],> 80%
Cc1nc(-c2cc(C#N)c3c(C)ccc(F)c3c2)sc1C(=O)O [Example 15],IC50,[1],7 nM
same,inhibition at 100 µM,[2],> 80%
"N#Cc1cc(-c2ccc(C(=O)O)cc2)cc2ccccc12 [Example 4, 4-(4-Cyanonaphthalene-2-yl)benzoic acid]",IC50,[1],20 nM
Cc1nc(-c2cc(C#N)c3ccc(F)cc3c2)sc1C(=O)O [Example 12],IC50,[1],4 nM
same,inhibition at 100 µM,[2],> 80%
"N#Cc1cc(-c2cc(C(=O)O)ccn2)cc2ccccc12 [Example 1, 2-(4-Cyanonaphthalene-2-yl)isonicotinic acid]",IC50,[1],11 nM
"N#Cc1cc(-c2ccc(C(=O)O)cc2)nc2ccccc12 [Example 5, 4-(4-Cyanoquinoline-2-yl)benzoic acid]",IC50,[1],81 nM
Cc1nc(-c2cc(C#N)c3cccc(F)c3c2)sc1C(=O)O [Example 13],IC50,[1],8 nM
same,inhibition at 100 µM,[2],> 80%
"Cc1ccc2cc(-c3nc(C)c(C(=O)O)s3)cc(C#N)c2c1 [Example 8, 2-(4-Cyano-6-methylnaphthalene-2-yl)-4-methylthiazole-5-carboxylic acid]",IC50,[1],11 nM
N#Cc1cc(-c2ncc(C(=O)O)s2)cc2ccccc12 [Example 31],IC50,[1],2 nM
same,inhibition at 100 µM,[2],> 80%
